Source: patent publication US20210300936A1, “PYRAZOLOTRIAZOLOPYRIMIDINE DERIVATIVES AS A2A RECEPTOR ANTAGONIST” (BEIGENE, LTD., priority 2018, published 2021)

Target: human A2A receptor (A2AR) (Homo sapiens, UniProt P29274)
Assay: Luciferase reporter assay (HEK293-A2AR-luc2p/CRE/Hygro cells, 3 nM CGS21680)
Format: cell-based
Conditions: 3 nM CGS21680, 5 h incubation
Method in brief: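 Antagonist (0.1–10000 nM) and 3 nM CGS21680 were co-added for 5 h to stable HEK293-A2AR-luc2p/CRE cells, 18 h after seeding in 1% FBS medium containing adenosine deaminase. Luminescence was normalized to agonist alone (100%), and IC50 came from the dose–inhibition curve.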

human A2A receptor (A2AR), sequence (P29274 whole entry): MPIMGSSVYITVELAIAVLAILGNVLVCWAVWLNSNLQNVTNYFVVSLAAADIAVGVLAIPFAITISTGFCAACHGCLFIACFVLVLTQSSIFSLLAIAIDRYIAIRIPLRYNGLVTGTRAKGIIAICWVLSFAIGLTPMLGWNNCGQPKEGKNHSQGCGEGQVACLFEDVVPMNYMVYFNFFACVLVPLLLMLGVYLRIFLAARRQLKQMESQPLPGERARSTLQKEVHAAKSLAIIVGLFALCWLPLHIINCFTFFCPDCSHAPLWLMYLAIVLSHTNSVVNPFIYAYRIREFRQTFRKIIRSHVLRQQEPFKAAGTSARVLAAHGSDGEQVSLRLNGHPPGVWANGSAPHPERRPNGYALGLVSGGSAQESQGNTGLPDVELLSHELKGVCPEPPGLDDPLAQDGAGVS

| Compound | IC50 [nM] |
| --- | --- |
| CCCC(C(=O)N1CCN(c2ccc(F)cc2)CC1)n1ncc2c1nc(N)n1nc(-c3ccco3)nc21 (centres unmarked) [Compound A45, 2-(5-amino-2-(furan-2-yl)-7H-pyrazolo[4,3-e][1,2,4]triazolo[1,5-c]pyrimidin-7-yl)-1-(4-(4-fluorophenyl)piperazin-1-yl)pentan-1-one] | 6 |
| CN1CCN(CCCOc2ccc(N3CCN(C(=O)C(C)(c4ccccc4)n4ncc5c4nc(N)n4nc(-c6ccco6)nc54)CC3)cc2)CC1 (centres unmarked) [Compound A82, 2-(5-amino-2-(furan-2-yl)-7H-pyrazolo[4,3-e][1,2,4]triazolo[1,5-c]pyrimidin-7-yl)-1-(4-(4-(3-(4-methylpiperazin-1-yl)propoxy)phenyl)piperazin-1-yl)-2-phenylpropan-1-one] | 7.1 |
| CN(C)C(=O)C(c1ccccc1)n1ncc2c1nc(N)n1nc(-c3ccco3)nc21 (centres unmarked) [Compound B1, 2-(5-amino-2-(furan-2-yl)-7H-pyrazolo[4,3-e][1,2,4]triazolo[1,5-c]pyrimidin-7-yl)-N,N-dimethyl-2-phenylacetamide] | 15.2 |
| COCCOc1ccc(N2CCN(C(=O)C(c3ccc(OC)cc3)n3ncc4c3nc(N)n3nc(-c5ccco5)nc43)CC2)cc1 (centres unmarked) [Compound A29, 2-(5-amino-2-(furan-2-yl)-7H-pyrazolo[4,3-e][1,2,4]triazolo[1,5-c]pyrimidin-7-yl)-1-(4-(4-(2-methoxyethoxy)phenyl)piperazin-1-yl)-2-(4-methoxyphenyl)ethan-1-one] | 20.5 |
| COCCOCCOc1ccc(N2CCN(C(=O)C(CC(C)C)n3ncc4c3nc(N)n3nc(-c5ccco5)nc43)CC2)cc1 (single isomer, unassigned) [Compound A17b] | 160 |
| COCCOc1ccc(N2CCN(C(=O)C(C)n3ncc4c3nc(N)n3nc(-c5ccco5)nc43)CC2)cc1 (single isomer, unassigned) [Compound A1b, 2-(5-amino-2-(furan-2-yl)-7H-pyrazolo[4,3-e][1,2,4]triazolo[1,5-c]pyrimidin-7-yl)-1-(4-(4-(2-methoxyethoxy)phenyl)piperazin-1-yl)propan-1-one] | 40 |
| CC(C(=O)N1CCN(c2ccc(OCCCN3CCCC3)cc2)CC1)(c1ccccc1)n1ncc2c1nc(N)n1nc(-c3ccco3)nc21 (centres unmarked) [Compound A79, 2-(5-amino-2-(furan-2-yl)-7H-pyrazolo[4,3-e][1,2,4]triazolo[1,5-c]pyrimidin-7-yl)-2-phenyl-1-(4-(4-(3-(pyrrolidin-1-yl)propoxy)phenyl)piperazin-1-yl)propan-1-one] | 7.1 |
| C[C@@](C(=O)N1CCN(c2ccc(OCCN3CCOCC3)cc2)CC1)(c1ccccc1)n1ncc2c1nc(N)n1nc(-c3ccco3)nc21 [Compound A80a, (S)-2-(5-amino-2-(furan-2-yl)-7H-pyrazolo[4,3-e][1,2,4]triazolo[1,5-c]pyrimidin-7-yl)-1-(4-(4-(2-morpholinoethoxy)phenyl)piperazin-1-yl)-2-phenylpropan-1-one] | 7.4 |
| COc1ccc(N2CCN(C(=O)C(C)(c3ccccc3)n3ncc4c3nc(N)n3nc(-c5ccco5)nc43)CC2)c(OC)c1 (centres unmarked) [Compound A105, 2-(5-amino-2-(furan-2-yl)-7H-pyrazolo[4,3-e][1,2,4]triazolo[1,5-c]pyrimidin-7-yl)-1-(4-(2,4-dimethoxyphenyl)piperazin-1-yl)-2-phenylpropan-1-one] | 10.3 |
| COCCOc1ccc(N2CCN(C(=O)C(C)(c3ccccc3)n3ncc4c3nc(N)n3nc(-c5ccco5)nc43)CC2)c(F)c1F (centres unmarked) [Compound A67, 2-(5-amino-2-(furan-2-yl)-7H-pyrazolo[4,3-e][1,2,4]triazolo[1,5-c]pyrimidin-7-yl)-1-(4-(2,3-difluoro-4-(2-methoxyethoxy)phenyl)piperazin-1-yl)-2-phenylpropan-1-one] | 8.9 |

Now those with a lower IC50, led by results:

| IC50 [nM] | Compound |
| --- | --- |
| 0.6 | COCCOc1ccc(N2CCN(C(=O)C(c3ccccc3C(F)(F)F)n3ncc4c3nc(N)n3nc(-c5ccco5)nc43)CC2)cc1 (centres unmarked) [Compound A38, 2-(5-amino-2-(furan-2-yl)-7H-pyrazolo[4,3-e][1,2,4]triazolo[1,5-c]pyrimidin-7-yl)-1-(4-(4-(2-methoxyethoxy)phenyl)piperazin-1-yl)-2-(2-(trifluoromethyl)phenyl)ethan-1-one] |
| 2.6 | CN1CCN(CCOc2ccc(N3CCN(C(=O)[C@@](C)(c4ccccc4)n4ncc5c4nc(N)n4nc(-c6ccco6)nc54)CC3)cc2)CC1 [Compound A81b, (R)-2-(5-amino-2-(furan-2-yl)-7H-pyrazolo[4,3-e][1,2,4]triazolo[1,5-c]pyrimidin-7-yl)-1-(4-(4-(2-(4-methylpiperazin-1-yl)ethoxy)phenyl)piperazin-1-yl)-2-phenylpropan-1-one] |
| 0.1 | COCCOc1ccc(N2CCN(C(=O)C(c3ccccc3OC)n3ncc4c3nc(N)n3nc(-c5ccco5)nc43)CC2)cc1 (single isomer, unassigned) [Compound A31b] |
| 5.6 | COCCOc1cccc2c1CN(C(=O)C(c1ccccc1)n1ncc3c1nc(N)n1nc(-c4ccco4)nc31)CC2 (centres unmarked) [Compound B16, 2-(5-amino-2-(furan-2-yl)-7H-pyrazolo[4,3-e][1,2,4]triazolo[1,5-c]pyrimidin-7-yl)-1-(8-(2-methoxyethoxy)-3,4-dihydroisoquinolin-2(1H)-yl)-2-phenylethan-1-one] |
| 5 | CC(C(=O)N1CCN(c2ccc(F)cc2)CC1)(c1ccccc1)n1ncc2c1nc(N)n1nc(-c3ccco3)nc21 (centres unmarked) [Compound A70, 2-(5-amino-2-(furan-2-yl)-7H-pyrazolo[4,3-e][1,2,4]triazolo[1,5-c]pyrimidin-7-yl)-1-(4-(4-fluorophenyl)piperazin-1-yl)-2-phenylpropan-1-one] |
| 2.9 | Nc1nc2c(cnn2C(C(=O)N2CCCCC2)c2ccccc2)c2nc(-c3ccco3)nn12 (centres unmarked) [Compound B2, 2-(5-amino-2-(furan-2-yl)-7H-pyrazolo[4,3-e][1,2,4]triazolo[1,5-c]pyrimidin-7-yl)-2-phenyl-1-(piperidin-1-yl)ethan-1-one] |
| 3.4 | C[C@](C(=O)N1CCN(c2ccc(F)cc2)CC1)(c1ccccc1)n1ncc2c1nc(N)n1nc(-c3ccco3)nc21 [Compound A70b, (R)-2-(5-amino-2-(furan-2-yl)-7H-pyrazolo[4,3-e][1,2,4]triazolo[1,5-c]pyrimidin-7-yl)-1-(4-(4-fluorophenyl)piperazin-1-yl)-2-phenylpropan-1-one] |
| 4.9 | CN1CCN(CCCOc2ccc(N3CCN(C(=O)[C@@](C)(c4ccccc4)n4ncc5c4nc(N)n4nc(-c6ccco6)nc54)CC3)cc2)CC1 [Compound A82b, (R)-2-(5-amino-2-(furan-2-yl)-7H-pyrazolo[4,3-e][1,2,4]triazolo[1,5-c]pyrimidin-7-yl)-1-(4-(4-(3-(4-methylpiperazin-1-yl)propoxy)phenyl)piperazin-1-yl)-2-phenylpropan-1-one] |
| 0.8 | Nc1nc2c(cnn2C(C(=O)N2CCc3cccc(F)c3C2)c2ccccc2)c2nc(-c3ccco3)nn12 (centres unmarked) [Compound B10, 2-(5-amino-2-(furan-2-yl)-7H-pyrazolo[4,3-e][1,2,4]triazolo[1,5-c]pyrimidin-7-yl)-1-(8-fluoro-3,4-dihydroisoquinolin-2(1H)-yl)-2-phenylethan-1-one] |
| 4 | Nc1nc2c(cnn2C(C(=O)N2CCc3ccncc3C2)c2ccccc2)c2nc(-c3ccco3)nn12 (centres unmarked) [Compound B8, 2-(5-amino-2-(furan-2-yl)-7H-pyrazolo[4,3-e][1,2,4]triazolo[1,5-c]pyrimidin-7-yl)-1-(3,4-dihydro-2,7-naphthyridin-2(1H)-yl)-2-phenylethan-1-one] |
